Results reported in PMC6017536, “Synthesis and Smo Activity of Some Novel Benzamide Derivatives” (Molecules : A Journal of Synthetic Chemistry and Natural …, 2017).

target: T1, human Smo (Homo sapiens, UniProt Q99835); test: hSmo BODIPY-cyclopamine competitive binding assay; conditions: inhibition of BODIPY-cyclopamine fluorescence, competitive displacement, HEK 293 cells over-expressing human Smo; single IC50 determination; read-out: Smo-BCB IC50
T1 construct: HA; expressed in transfected cells; host or cells: HEK293
Method: To determine whether the Hh inhibitory activities of the target compounds were derived from their inhibition to the Smo receptor, a binding assay was used.
3.3.2. Hsmo-BC Binding Assay
BODIPY-cyclopamine binding assay is a fluorescence-based assay used to analyze the binding of Smo agonists/antagonists. HEK293 cells were transfected with pCMV-HA/hSmo using Lipofectamine reagent (Lipofectamine™ 2000, Invitrogen, Carlsbad, CA, USA). Briefly, 50 μL of Lipofectamine 2000 and 22.5 μg of pCMV-HA/hSmo were each incubated in 1.5 mL of Opti-MEMI media (Invitrogen) at room temperature for 30 min and then was added to 1 × 10^6 HeK293 cells in 25 mL of culture medium in a 75 cm^2 cell culture flask. After overnight incubation under 5% CO2 at 37 °C, cells were detached using Versene (Invitrogen) and resuspended in culture medium. The suspended cells were added to a 96-well plate at 10,000 cells/well. After removing the media from each well, the cells were fixed with 4% paraformaldehyde (PFA) for 20 min at room temperature. Then the PFA buffer was removed, and the cells were incubated with 4′,6-diamidino-2-phenylindole (DAPI) ([…]) for 10 min, followed by washing with PBS four times. […] After incubation, the cells were washed five times with PBST (PBS buffer supplied with 0.05% Tween-20). The fluorescence images were automatically captured and analyzed by a high content fluorescence imaging system (Arrayscan VTI, Thermo, Waltham, MA, USA). Data was expressed as a percentage of fluorescence intensity observed with BODIPY-cyclopamine alone. […] IC50 values were calculated with GraphPad Prism software using the sigmoidal dose-response function.

T1 sequence (Q99835 28-787): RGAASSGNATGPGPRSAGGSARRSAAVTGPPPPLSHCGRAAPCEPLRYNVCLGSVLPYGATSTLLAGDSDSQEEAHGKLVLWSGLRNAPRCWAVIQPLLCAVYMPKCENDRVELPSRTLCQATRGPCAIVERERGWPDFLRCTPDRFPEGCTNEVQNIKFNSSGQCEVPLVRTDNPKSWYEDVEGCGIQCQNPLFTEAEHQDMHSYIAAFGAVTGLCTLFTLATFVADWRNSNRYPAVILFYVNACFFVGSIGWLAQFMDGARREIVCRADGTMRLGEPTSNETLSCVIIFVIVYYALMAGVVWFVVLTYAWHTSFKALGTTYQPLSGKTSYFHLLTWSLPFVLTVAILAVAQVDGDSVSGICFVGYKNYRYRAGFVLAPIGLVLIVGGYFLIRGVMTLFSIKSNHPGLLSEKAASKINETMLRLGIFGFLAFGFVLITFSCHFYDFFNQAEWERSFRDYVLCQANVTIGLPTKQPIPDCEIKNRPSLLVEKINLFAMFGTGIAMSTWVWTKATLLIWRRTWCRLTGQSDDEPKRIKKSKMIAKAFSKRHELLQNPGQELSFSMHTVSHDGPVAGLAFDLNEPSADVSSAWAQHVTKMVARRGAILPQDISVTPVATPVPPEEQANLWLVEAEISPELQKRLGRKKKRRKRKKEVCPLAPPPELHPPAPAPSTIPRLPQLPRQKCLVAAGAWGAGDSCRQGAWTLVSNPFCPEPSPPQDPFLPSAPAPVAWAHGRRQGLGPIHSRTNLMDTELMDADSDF

In order of falling IC50:
1. CN1CCN(C(=O)C2CCN(c3cccc(NC(=O)c4cccnc4)c3)CC2)CC1 [Compound 5n, N-(3-(4-(4-methylpiperazine-1-carbonyl)piperidin-1-yl)phenyl)nicotinamide]  6.35 ± 0.07 µM
2. CN1CCN(C(=O)C2CCN(c3cccc(NC(=O)c4ccc(S(C)(=O)=O)cc4Cl)c3)CC2)CC1 [Compound 5o, 2-Chloro-N-(3-(4-(4-methylpiperazine-1-carbonyl)piperidin-1-yl)phenyl)-4-(methylsulfonyl)benzamide]  6.23 ± 0.12 µM
3. COc1cc(OC)cc(C(=O)Nc2cccc(N3CCC(C(=O)N4CCN(C)CC4)CC3)c2)c1 [Compound 5l, 3,5-Dimethoxy-N-(3-(4-(4-methylpiperazine-1-carbonyl)piperidin-1-yl)phenyl)benzamide]  2.41 ± 0.01 µM
4. CN1CCN(C(=O)C2CCN(c3cccc(NC(=O)c4cccc(-c5ccccn5)c4)c3)CC2)CC1 [Compound 5q, N-(3-(4-(4-methylpiperazine-1-carbonyl)piperidin-1-yl)phenyl)-3-(pyridin-2-yl)benzamide]  1.61 ± 0.02 µM

system: Hh signaling pathway (Gli-luc reporter, NIH3T3 cells); test: NIH3T3-Gli-luciferase reporter assay (Gli-Luc dual luciferase); format: cell-based, Mouse; conditions: Mus musculus; NIH3T3 cells transfected with Gli luciferase reporter, stimulated with 10 nM SAG, 24 h; average of triplicate separate determinations
Method: In the Hh signaling pathway activity test, we used the Gli-Luc double luciferase detection system, which is widely used to test the inhibitory activity of the Hh signaling pathway. […]
3.3.1. NIH3T3-Gli-Luciferase Reporter Assay
NIH3T3 cells (Chinese Academy of Sciences cell bank, Mouse embryonic fibroblast cell line) were grown in Dulbecco’s Modified Eagle Media (DMEM) media supplemented with 10% fetal bovine serum (FBS) at 37 °C with a humidified 5% CO2 atmosphere.
NIH3T3 cells were plated one day before transfection. To prepare NIH3T3 cells, enough cells were collected to complete the transfection experiment, and centrifuged for 5 min at 300× g. The cell pellet was resuspended to an appropriate concentration in DMEM media with 0.5% FBS, then 5000 cells were plated in 100 μL per well of a 96-well plate.
The NIH3T3 cells were transfected with the Glioma-associated oncogene (GLI)-reporter, negative control, and positive control constructs (QIAGEN, Cat# CCS-6030L) by using Fugene HD transfection reagents (Promega, Cat. No. E2311, Madison, WI). The FuGENER HD Transfection Reagent/DNA mixture was incubated for 15 min at room temperature. A total of 10 μL of the FuGENER HD Transfection Reagent/DNA mixture was added per well to the 96-well plate containing 100 μL cells in growth medium. The mixture was mixed gently using a plate shaker. Cells were returned to the incubator for 24–48 h. Transfection efficiency was estimated by observing green fluorescent protein (GFP) expression in the positive control wells by fluorescence microscopy.
[…] Cells were incubated with SAG and compounds for 24 h. To study the effect of test compounds, cells were harvested 24 h after treatment to perform the dual-luciferase assay.
Dual-Luciferase assays were conducted using the Dual-Luciferase® Assay System (Promega, Cat# E1910) according to Promega’s protocol. Each system included: 5X Passive Lysis Buffer (PLB), Luciferase Assay Buffer II, Luciferase Assay Substrate, and 50X Stop & Glo® Substrate and Stop & Glo® Buffer.
After 24 h treatment, the assay medium was removed and cells were washed with PBS buffer, and then 20 μL of 1XPLB was added to each well. The culture plates were incubated on a plate shaker with gentle shaking at room temperature for 15 min. A total of 100 μL LARII was added to each well, and the firefly luciferase luminescence signal was measured using an EnVision® 2104 Multilabel Reader (PerkinElmer, Waltham, MA, USA), with a measure time of 10s. A total of 100 μL Stop & Glo® Reagent was added to each well, and Renilla luciferase luminescence signal was measured using an EnVision® 2104 Multilabel Reader (PerkinElmer); the measure time was 10 s.
Relative Luciferase Units (RLU) Calculation
Firefly: Renilla activity ratios were generated from experimental and control transfections. Ratios from transcription factor-responsive reporter transfections were divided by ratios from negative control transfections to obtain relative luciferase units. […]
The histogram of % inhibition of compounds was generated by using GraphPad Prism 5.0 software (GraphPad Software Inc., La Jolla, CA, USA).

In order of falling IC50:
1. CN1CCN(C(=O)C2CCN(c3cccc(NC(=O)c4ccc([N+](=O)[O-])cc4)c3)CC2)CC1 [Compound 5g, N-(3-(4-(4-methylpiperazine-1-carbonyl)piperidin-1-yl)phenyl)-4-nitrobenzamide]  60.56 ± 0.04 µM
2. CN1CCN(C(=O)C2CCN(c3cccc(NC(=O)c4cccc([N+](=O)[O-])c4)c3)CC2)CC1 [Compound 5f, N-(3-(4-(4-methylpiperazine-1-carbonyl)piperidin-1-yl)phenyl)-3-nitrobenzamide]  53.34 ± 0.07 µM
3. CN1CCN(C(=O)C2CCN(c3cccc(NC(=O)c4ccccc4)c3)CC2)CC1 [Compound 5a, N-(3-(4-(4-Methylpiperazine-1-carbonyl)piperidin-1-yl)phenyl)benzamide]  28.52 ± 0.02 µM
4. CN1CCN(C(=O)C2CCN(c3cccc(NC(=O)c4cccc(F)c4)c3)CC2)CC1 [Compound 5e, 3-Fluoro-N-(3-(4-(4-methylpiperazine-1-carbonyl)piperidin-1-yl)phenyl)benzamide]  17.59 ± 0.15 µM
5. Cc1ccccc1C(=O)Nc1cccc(N2CCC(C(=O)N3CCN(C)CC3)CC2)c1 [Compound 5k, 2-Methyl-N-(3-(4-(4-methylpiperazine-1-carbonyl)piperidin-1-yl)phenyl)benzamide]  16.61 ± 0.12 µM
6. CN1CCN(C(=O)C2CCN(c3cccc(NC(=O)c4ccc(F)cc4)c3)CC2)CC1 [Compound 5d, 4-Fluoro-N-(3-(4-(4-methylpiperazine-1-carbonyl)piperidin-1-yl)phenyl)benzamide]  15.51 ± 0.03 µM
7. CN1CCN(C(=O)C2CCN(c3cccc(NC(=O)c4cccc(Cl)c4)c3)CC2)CC1 [Compound 5c, 3-Chloro-N-(3-(4-(4-methylpiperazine-1-carbonyl)piperidin-1-yl)phenyl)benzamide]  14.63 ± 0.01 µM
8. O=C(Nc1cc(CC(=O)N2CCN(S(=O)(=O)c3ccc(F)cc3)CC2)ccc1Cl)c1ccc(Cl)cc1 [Compound 8b, 4-Chloro-N-(2-chloro-5-(2-(4-((4-fluorophenyl)sulfonyl)piperazin-1-yl)-2-oxoethyl)phenyl)benzamide]  12.7 ± 0.16 µM
9. CN1CCN(C(=O)C2CCN(c3cccc(NC(=O)c4ccc(Cl)cc4)c3)CC2)CC1 [Compound 5b, 4-Chloro-N-(3-(4-(4-methylpiperazine-1-carbonyl)piperidin-1-yl)phenyl)benzamide]  12.47 ± 0.11 µM
10. CN1CCN(C(=O)C2CCN(c3cccc(NC(=O)c4ccccc4Br)c3)CC2)CC1 [Compound 5m, 2-Bromo-N-(3-(4-(4-methylpiperazine-1-carbonyl)piperidin-1-yl)phenyl)benzamide]  10.49 ± 0.05 µM
11. CCCCS(=O)(=O)N1CCN(C(=O)Cc2ccc(Cl)c(NC(=O)c3ccc(Cl)cc3)c2)CC1 [Compound 8c, N-(5-(2-(4-(butylsulfonyl)piperazin-1-yl)-2-oxoethyl)-2-chlorophenyl)-4-chlorobenzamide]  8.62 ± 0.09 µM
12. CN1CCN(C(=O)C2CCN(c3cccc(NC(=O)c4ccc(Br)cc4)c3)CC2)CC1 [Compound 5h, 4-Bromo-N-(3-(4-(4-methylpiperazine-1-carbonyl)piperidin-1-yl)phenyl)benzamide]  7.85 ± 0.01 µM
13. CS(=O)(=O)N1CCN(C(=O)Cc2ccc(Cl)c(NC(=O)c3ccc(Cl)cc3)c2)CC1 [Compound 8a, 4-Chloro-N-(2-chloro-5-(2-(4-(methylsulfonyl)piperazin-1-yl)-2-oxoethyl)phenyl)benzamide]  6.88 ± 0.13 µM
14. CN1CCN(C(=O)C2CCN(c3cccc(NC(=O)c4cccnc4)c3)CC2)CC1 [Compound 5n, N-(3-(4-(4-methylpiperazine-1-carbonyl)piperidin-1-yl)phenyl)nicotinamide]  5.32 ± 0.13 µM
15. CN1CCN(C(=O)C2CCN(c3cccc(NC(=O)c4ccc(S(C)(=O)=O)cc4Cl)c3)CC2)CC1 [Compound 5o, 2-Chloro-N-(3-(4-(4-methylpiperazine-1-carbonyl)piperidin-1-yl)phenyl)-4-(methylsulfonyl)benzamide]  4.28 ± 0.01 µM
16. CN1CCN(C(=O)C2CCN(c3cccc(NC(=O)c4ccc(S(C)(=O)=O)cc4)c3)CC2)CC1 [Compound 5p, N-(3-(4-(4-methylpiperazine-1-carbonyl)piperidin-1-yl)phenyl)-4-(methylsulfonyl)benzamide]  3.43 ± 0.08 µM
17. COc1cc(C(=O)NC(=S)Nc2cccc(NC(=O)c3ccccc3)c2)cc(OC)c1OC [MRT10, reference compound]  2.15 µM
18. COc1cc(OC)cc(C(=O)Nc2cccc(N3CCC(C(=O)N4CCN(C)CC4)CC3)c2)c1 [Compound 5l, 3,5-Dimethoxy-N-(3-(4-(4-methylpiperazine-1-carbonyl)piperidin-1-yl)phenyl)benzamide]  1.83 ± 0.03 µM
19. CN1CCN(C(=O)C2CCN(c3cccc(NC(=O)c4cccc(-c5ccccn5)c4)c3)CC2)CC1 [Compound 5q, N-(3-(4-(4-methylpiperazine-1-carbonyl)piperidin-1-yl)phenyl)-3-(pyridin-2-yl)benzamide]  1.26 ± 0.03 µM
20. CS(=O)(=O)c1ccc(C(=O)Nc2ccc(Cl)c(-c3ccccn3)c2)c(Cl)c1 [Vismodegib, reference compound]  0.025 µM

same assay, conditions: NIH3T3 cells transfected with Gli luciferase reporter, stimulated with 10 nM SAG, 24 h; average of triplicate separate determinations

In order of falling IC50:
1. 3-Methyl-N-(3-(4-(4-methylpiperazine-1-carbonyl)piperidin-1-yl)phenyl)benzamide [Compound 5i]  16.32 ± 0.05 µM
2. 3-Methoxy-N-(3-(4-(4-methylpiperazine-1-carbonyl)piperidin-1-yl)phenyl)benzamide [Compound 5j]  4.74 ± 0.02 µM
